Results on five compounds are retold here after PMC7349657, “Efficient Targeted Degradation via Reversible and Irreversible Covalent PROTACs” (Journal of the American Chemical Society, 2020).

T1 sequence (Q06187 whole entry C481S): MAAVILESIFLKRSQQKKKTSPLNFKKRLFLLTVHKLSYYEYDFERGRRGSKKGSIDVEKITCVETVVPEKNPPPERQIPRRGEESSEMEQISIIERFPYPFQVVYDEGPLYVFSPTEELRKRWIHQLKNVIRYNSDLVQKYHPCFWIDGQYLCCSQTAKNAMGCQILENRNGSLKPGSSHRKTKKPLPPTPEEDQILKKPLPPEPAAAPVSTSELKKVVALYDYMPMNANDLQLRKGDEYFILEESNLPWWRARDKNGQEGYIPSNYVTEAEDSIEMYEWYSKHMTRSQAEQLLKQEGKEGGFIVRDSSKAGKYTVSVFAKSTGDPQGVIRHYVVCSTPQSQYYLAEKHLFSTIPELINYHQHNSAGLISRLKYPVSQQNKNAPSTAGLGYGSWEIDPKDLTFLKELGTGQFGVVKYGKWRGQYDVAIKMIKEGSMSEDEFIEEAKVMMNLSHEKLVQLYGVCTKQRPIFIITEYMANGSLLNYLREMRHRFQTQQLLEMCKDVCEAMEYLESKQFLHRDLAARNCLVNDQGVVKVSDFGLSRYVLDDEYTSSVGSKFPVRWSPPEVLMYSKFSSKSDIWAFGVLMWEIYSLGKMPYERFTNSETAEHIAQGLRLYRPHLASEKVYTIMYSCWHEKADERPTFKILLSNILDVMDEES

The assay has as its target T1, BTK C481S (Homo sapiens, UniProt Q06187, C481S).
T1 construct: Human wild type BTK full length was obtained from the ORFeome; expressed in transfected cells; host or cells: U2OS (ATCC HTB-96), pCDNA3.1, CMV promoter
The assay can be described thus: Degradation of overexpressed BTK C481S in transfected U2OS cells. Particulars: overexpressed WT vs C481S BTK, 100 nM, 24 h. It is filed as cell-based. Here is the method:
Figure 5 Degradation of overexpressed BTK and BTK C481S in U2OS cells. (A) Transfected U2OS cells were treated with 100 nM PROTAC for 24 h, followed by measuring BTK levels via Western blot. (B) Quantification of normalized BTK levels in (A). TEXT PRINTED IN THE PICTURE: (A) IR-1: BTK % control: 43 (Transfection: BTK-WT; PROTAC 24h [0.1 μM]); BTK % control: 67 (Transfection: BTK-C481S; PROTAC 24h [0.1 μM]) | (A) RC-2: BTK % control: 58 (Transfection: BTK-WT; PROTAC 24h [0.1 μM]); BTK % control: 73 (Transfection: BTK-C481S; PROTAC 24h [0.1 μM]) | (A) IR-2: BTK % control: 41 (Transfection: BTK-WT; PROTAC 24h [0.1 μM]); BTK % control: 62 (Transfection: BTK-C481S; PROTAC 24h [0.1 μM]) | (A) NC-1: BTK % control: 27 (Transfection: BTK-WT; PROTAC 24h [0.1 μM]); BTK % control: 49 (Transfection: BTK-C481S; PROTAC 24h [0.1 μM]) | (A) RC-3: BTK % control: 27 (Transfection: BTK-WT; PROTAC 24h [0.1 μM]); BTK % control: 104 (Transfection: BTK-C481S; PROTAC 24h [0.1 μM]) DOUBTS OF THE COPYIST ABOUT THIS PICTURE: The % control numbers are printed under a Western blot. They are given here as printed results for each compound. The vehicle and untransfected lanes (DMSO 100 and 100, Un 1 and 0) were left out as controls. / Panel B prints no numbers for its bars, so nothing was taken from it.
Ramos (ATCC, CRL-1596), Mino (ATCC, CRL-3000), or K562 (NCI-60) cell lines were counted and diluted to 10^6 cell/mL, using 1 mL per well in a 24-well plate, and U2OS (ATCC HTB-96) cells overexpressing human BTK WT or C481S mutant were grown using 2 mL in a six-well plate (see Supporting Information). Cells were incubated with 1% DMSO or compound in indicated concentrations for 24 h unless indicated differently, or cells were left untreated. Lysates were prepared as previously described,[29] and samples were measured for total protein quantification by bicinchoninic acid (BCA) assay (#23225 ThermoFisher Scientific) supplemented with 4× loading buffer including 20 mM DTT, heated to 70 °C for 10 min, loaded into 4% SDS-PAGE gel, run for 45 min at 140 mV, then transferred into a nitrocellulose membrane (Biorad) using a Trans-Blot Turbo transfer system (Biorad). The membrane was stained with Ponceau (Sigma) to validate transfer for 10 min in gentle agitation then destained for 1 h with MQ water. The membrane was blocked with Licor blocking buffer (LIC927-70001) for 1 h, washed three times for 5 min with TBS-T, incubated with primary antibody BTK (D3H5) rabbit mAb (CST; 8547 S) overnight (16 h) at 4 °C, washed three times for 5 min with TBS-T, and incubated with primary antibody against β-actin (CST; 3700) for 1 h at 25 °C. Membrane was washed three times for 5 min with TBS-T, incubated with fluorescent secondary antibodies anti-mouse IgG Alexa Fluor 647 (CST: 4410S) and anti-rabbit-IgG IRDye 800(LICOR: 926-32211) for 1 h, then washed three times for 5 min with TBS-T, dried, and immediately imaged and analyzed using Licor Odyssey CLx. Prism (GraphPad) software was used to calculate degradation levels. We used second-order polynomial fits to estimate DC50 and Dmax values.
Cloning and Over Expression of BTK
Human wild type BTK full length was obtained from the ORFeome (ref: http://www.orfeomecollaboration.org/), from which the full human BTK gene (clone HsCD00433457) was inserted into the mammalian expression vector pCDNA3.1. In parallel, a mutant BTK C481S was constructed by assemble 2 PCR products harboring the desired mutation and cloned into pCDNA3.1. […]
As for `Nc1ncnc2c1c(-c1ccc(Oc3ccccc3)cc1)nn2C1CCCN(C(=O)C=CCOCCOCCOCCOCCOCCOc2cccc3c2C(=O)N(C2CCC(=O)NC2=O)C3=O)C1` (centres unmarked) [IR-1], the “sensitivity of degradation to the C481S mutation” value (from here on “sensitivity of degradation”) is given as “low sensitivity to the mutation”.

In the case of `Nc1ncnc2c1c(-c1ccc(Oc3ccccc3)cc1)nn2C1CCCN(C(=O)C=CCCCCOCCOCCOCCOCCOc2cccc3c2C(=O)N(C2CCC(=O)NC2=O)C3=O)C1` (centres unmarked) [IR-2], the “sensitivity of degradation” value was “low sensitivity to the mutation”.

For the compound `Nc1ncnc2c1c(-c1ccc(Oc3ccccc3)cc1)nn2C1CCCN(C(=O)CCCCCCOCCOCCOCCOCCOc2cccc3c2C(=O)N(C2CCC(=O)NC2=O)C3=O)C1` (centres unmarked) [NC-1], the “sensitivity of degradation” value is given as “only mildly affected by the mutation”.

With `N#CC(=CCCCCOCCOCCOCCOCCOc1cccc2c1C(=O)N(C1CCC(=O)NC1=O)C2=O)C(=O)N1CCCC(n2nc(-c3ccc(Oc4ccccc4)cc3)c3c(N)ncnc32)C1` (centres unmarked) [RC-2], the “sensitivity of degradation” value is listed as “low sensitivity to the mutation”.

For `CC(C)(C=C(C#N)C(=O)N1CCCC(n2nc(-c3ccc(Oc4ccccc4)cc3)c3c(N)ncnc32)C1)CCCOCCOCCOCCOCCOc1cccc2c1C(=O)N(C1CCC(=O)NC1=O)C2=O` (centres unmarked) [RC-3], the “sensitivity of degradation” value was “severely impaired by the mutation”.
